Numbers after ± are expanded uncertainties.
Columns and labels:
[1] = Crystal; DTA
[2] = Molar enthalpy of transition or fusion; settings: Crystal; DSC

- Normal melting temperature [1]: 82.07 ± 1.1 °C
- Molar enthalpy of transition or fusion [2]: 18.7 ± 1.1 kJ/mol
SMILES: CC1=C(O)C(=O)C(C)O1 (configuration not stated) [4-hydroxy-2,5-dimethyl-3(2H)-furanone]

— the NIST ThermoML archive (doi:10.1016/j.jct.2015.08.035)
